Legend:
Assay type in all cases: in vivo, rat
[1] = test system: coronary artery ligated rats (myocardial infarction); assay: Coronary artery ligation, mortality; conditions: male Sprague-Dawley rats, 10 mg/kg daily by gastric tube from 1 hour after occlusion
Method: (§1) Myocardial infarction was produced in male Sprague-Dawley rats (300-400 g) by occlusion of the left coronary artery. The rats were housed in clear cages in a temperature (19-22° C.) and humidity (50-55% RH) controlled room on a 12 hour light-dark cycle. Food and water were supplied ad libitum. Rats were anaesthized with 1-5% isoflurane in 100% O2 (2 L/minute flow rate). The skin was incised along the left sternal border and the 4th rib was cut proximal to the sternum and a retractor was inserted. The pericardial sac was opened and the heart externalized. The left anterior descending coronary artery was ligated approximately 2 mm from its origin on the aorta using a 6-0 silk suture. The heart was then repositioned in the chest and the incision closed via purse-string sutures. Sham-operated rats underwent identical treatment except that the artery was not ligated. Mortality due to surgery was less than 1%. All animals were allowed to recover, receiving food and water ad libitum for 21 days. Hemodynamic and histological assessments were made. […]
(§2) Rats were divided at random into five groups: sham operated, coronary artery ligated (untreated), coronary artery ligated (pyridoxal-5′-phosphate (P5P) treatment), coronary artery ligated (compound VII treated) and coronary artery ligated (compound XI treated). Treatment with P5P, compound VII and compound XI began 1 hour after coronary occlusion (or sham operation), and continued for 21 days. P5P, compound VII or compound XI (10 mg/kg) were administered daily (9 AM) by gastric tube. This dosage was chosen based on previous experience with P5P.
Mortality in all groups occurred only within the first 24 h after coronary ligation. While in the untreated group 50% of the rats died, the mortality rate dropped to 17-25% in the treated groups (Table I).

[2] = test system: coronary artery ligated rats (left ventricle hemodynamics); assay: Hemodynamic changes after coronary artery ligation; conditions: rats 21 days after coronary ligation; 10 mg/kg daily by gastric tube; mean±SD
Method: as §1, with “sutures.” for “sutures. Sham-operated rats underwent identical treatment except that the artery was not ligated. Mortality due to surgery was less than 1%. All animals were allowed to recover, receiving food and water ad libitum for 21 days. Hemodynamic and histological assessments were made.”
The animals prepared as described in Example 29 were anaesthetized with an injected cocktail of ketamine hydrochloirde (60 mg/kg) and xylazine (10 mg/kg). […] The catheter was secured with a silk ligature around the artery, and various hemodynamic parameters including left ventricular systolic pressure (LVSP), left ventricular end diastolic pressure (LVEDP), rate of contraction (+dP/dt), and rate of relaxation (−dP/dt), were recorded and calculated with Acknowledge 3.1 software (Biopac Systems Inc.). The animals were allowed 5-10 minutes to stabilize, after which parameters were measured as averages over three readings.

[3] = test system: coronary artery ligated rats (cardiac hypertrophy); assay: Cardiac hypertrophy after coronary artery ligation; conditions: rats 21 days after coronary ligation, 10 mg/kg daily by gastric tube
Method: Myocardial infarction was produced in male Sprague-Dawley rats (300-400 g) by occlusion of the left coronary artery. The rats were housed in clear cages in a temperature (19-22° C.) and humidity (50-55% RH) controlled room on a 12 hour light-dark cycle. Food and water were supplied ad libitum. Rats were anaesthized with 1-5% isoflurane in 100% O2 (2 L/minute flow rate). The skin was incised along the left sternal border and the 4th rib was cut proximal to the sternum and a retractor was inserted. The pericardial sac was opened and the heart externalized. The left anterior descending coronary artery was ligated approximately 2 mm from its origin on the aorta using a 6-0 silk suture. The heart was then repositioned in the chest and the incision closed via purse-string sutures. Sham-operated rats underwent identical treatment except that the artery was not ligated. Mortality due to surgery was less than 1%. All animals were allowed to recover, receiving food and water ad libitum for 21 days. Hemodynamic and histological assessments were made.
as §2
Hypertrophy is a physiological condition of enlargement (increased mass) due to increased stress. Cardiac hypertrophy is assessed by calculating the heart to body mass ratio.

Row | Compound | Mortality (%) [1] | Total dead Rats [1] | Dead Rats 12 hr [1] | Dead Rats 24 hr [1] | Dead Rats 36 hr [1] | Dead Rats 48 hr [1] | Dead Rats 3 days [1] | LVSP (left ventricular systolic pressure) [2] | Cardiac Hypertophy, Heart Weight/Body Weight [3]
1 | Cc1ncc(C(F)P(=O)(O)O)c(CO)c1O (stereo not drawn) [compound XI, (3-hydroxy-4-hydroxymethyl-2-methyl-5-pyridyl)fluoromethyl phosphonic Acid] | 25% | 3 | 3 | 0 | 0 | 0 | 0 | 115.0 ± 12.1 | significant decrease in cardiac hypertrophy
2 | Cc1ncc(COP(=O)(O)O)c(C=O)c1O [P5P, pyridoxal-5′-phosphate, reference compound] | 17% | 2 | 1 | 1 | 0 | 0 | 0 | 120.0 ± 10.6 | –
3 | Cc1ncc(C(F)P(=O)(O)O)c(CO)c1O (stereo not drawn) [MC-5422, (3-hydroxy-4-hydroxymethyl-2-methyl-5-pyridyl)fluoromethyl phosphonic Acid] | – | – | – | – | – | – | – | – | 0.0032 ± 0.0002
4 | Cc1ncc(C(O)P(=O)(O)O)c(CO)c1O (stereo not drawn) [MC-5723, (3-hydroxy-4-hydroxymethyl-2-methyl-5-pyridyl)hydroxymethyl phosphonic Acid] | – | – | – | – | – | – | – | – | 0.0031 ± 0.0004
5 | Cc1ncc(C(O)P(=O)(O)O)c(CO)c1O (stereo not drawn) [compound VII, (3-hydroxy-4-hydroxymethyl-2-methyl-5-pyridyl)hydroxymethyl phosphonic Acid] | 21% | 3 | 2 | 1 | 0 | 0 | 0 | – | significant decrease in cardiac hypertrophy
